# Values quoted from earlier work, collected in patent US6457474B1, “Method of treating chest pain” (priority 1997, dated 2002).
# Legend:
# [1] = after the tablet has dissolved under the tongue
structure (smiles),measurement,setting,value
O=[N+]([O-])OCC(CO[N+](=O)[O-])O[N+](=O)[O-] [nitroglycerin],systemic bioavailability,after oral administration,rather low
same,plasma levels,high oral doses,erratic
same,time for the angina attack to go away,[1],approximately five
